{"source": "the NIST ThermoML archive (doi:10.1021/acs.jced.6b00388)", "details": "Liquid, Ebulliometric method (Recirculating still)", "note": "± gives the expanded uncertainty stated by the source.", "data": [{"smiles": "CC=C(C)C#N", "note": "[2-methyl-2-butenenitrile]", "values": [{"measurement": "vapor or sublimation pressure", "setting": "367.43 K", "value": "50 ± 1", "unit": "kPa"}, {"measurement": "vapor or sublimation pressure", "setting": "392.75 K", "value": "100 ± 2", "unit": "kPa"}]}, {"smiles": "CC=CCC#N", "note": "[3-pentenenitrile]", "values": [{"measurement": "vapor or sublimation pressure", "setting": "393.48 K", "value": "50 ± 1", "unit": "kPa"}, {"measurement": "vapor or sublimation pressure", "setting": "418.25 K", "value": "100 ± 2", "unit": "kPa"}]}, {"smiles": "C=CC1CC=CCC1", "note": "(stereo unspecified) [4-ethenylcyclohexene]", "values": [{"measurement": "vapor or sublimation pressure", "setting": "377.75 K", "value": "50 ± 1", "unit": "kPa"}, {"measurement": "vapor or sublimation pressure", "setting": "401.42 K", "value": "100 ± 2", "unit": "kPa"}]}]}
